Consider one compound from patent US6949545B2, “Heterocyclic side chain containing, n-substituted metalloprotease inhibitors” (The Procter & Gamble Company, priority 2000, dated 2005).

In this experiment the test system is asthma sufferer. Nature of the experiment: Example E: inhalation aerosol for asthma. The class given is in vivo, human. To be noted: 5.0% w/v aerosol, 0.01 mL sprayed into the mouth while inhaling. As to the method: An inhalation aerosol composition, according to the present invention, is made comprising: An asthma sufferer sprays 0.01 mL via a pump actuator into the mouth while inhaling.

SMILES strings stand for the structures.

For `COc1ccc(-c2ccc(S(=O)(=O)N(C)C(C(=O)O)C3CCN(CCc4ccccc4)CC3)cc2)cc1` (stereo not shown) [Example 17, [(4′-Methoxy-biphenyl-4-sulfonyl)-methyl-amino]-(1-phenethyl-piperidin-4-yl)-acetic Acid], the asthma symptoms result is recorded as “Asthma symptoms are diminished”.
